The values below are quoted from earlier work in patent US10441534B2, “Method for treating gynecological diseases” (PregLem SA, priority 2012, dated 2019).

For one series, the system named is uterine fibroids. Conditions: three months treatment period.
The conditions of series [1]: once daily UPA 5 mg tablets, plasma.

For `CC(=O)O[C@]1(C(C)=O)CC[C@H]2[C@@H]3CCC4=CC(=O)CCC4=C3[C@@H](c3ccc(N(C)C)cc3)C[C@@]21C` [ulipristal acetate, 17α-acetoxy-11β-(4-(N,N-dimethylamino)-phenyl)-19-norpregna-4,9-diene-3,20-dione], the “efficacy in patient with uterine fibroids” value with uterine fibroids is “efficient on the control of bleeding, reduction of fibroids volume and improvement of the patient quality of life”. In series [1], the “UPA Cmax” value is reported as “about 25 ng/mL” and the “UPA steady state concentrations” value is “about 3 ng/mL”.
